Patent US7816350B2, “Substituted [1,2,3] triazolo[4,5-D]pyrimidines as cdk inhibitors” (Institute of Experimental Botany ASCR, priority 2002, dated 2010)

Assays:
p34^cdc2/cyclin B (CDC2) = molecular target: T1, p34^cdc2/cyclin B (CDC2) (Homo sapiens, UniProt P06493); experiment: CDK inhibition assay, p34cdc2/cyclin B kinase, histone H1 phosphorylation; type: biochemical
T1 construct: made in house; host or cells: Sf9 insect cells (baculovirus co-infection)
Description: Cyclin-dependent kinases (p34^cdc2, p33^cdk2) and cyclins (cyclin B, E) are produced in Sf9 insect cells coinfected with appropriate baculoviral constructs. The cells are harvested 68-72 hrs post infection in lysis buffer for 30 min on ice and the soluble fraction is recovered by centrifugation at 14.000 g for 10 min. The protein extract is stored at −80° C.
Lysis buffer: 50 mM Tris pH 7.4, 150 mM NaCl, 5 mM EDTA, 20 mM NaF, 1% Tween, 1 mM DTT, 0.1 mM PMSF, leupeptine, aprotonine.
To carry out experiments on kinetics under linear conditions, the final point test system for kinase activity measurement is used. The kinase is added to reaction mixture in such a way as to obtain linear activity with respect to the concentration of enzyme and with respect to time.
The p34^cdc2 and p33^cdk2 kinase inhibition determination involves the use of 1 mg/ml histone H1 (Sigma, type III-S) in the presence of 15 μM [γ-^32P]ATP ([…]) (Amersham) in a final volume of 20 μl. Kinase activity is determined at 30° C. in the kinase buffer.
Tested compounds are usually dissolved to 100 mM solutions in DMSO, final concentration of DMSO in reaction mixture never exceeds 1%. The controls contain suitable dilutions of DMSO.
After 10 min, addition 3×SDS sample buffer stops the incubations. Phosphorylated proteins are separated electrophoretically using 12.5% SDS polyacrylamide gel. The measurement of kinase activity is done using digital image analysis.
The kinase activity is expressed as a percentage of maximum activity, the apparent inhibition constants are determined by graphic analysis (FIG. 1).
Kinase buffer: 50 mM Hepes pH 7.4, 10 mM MgCl2, 5 mM EGTA, 10 mM 2-glycerolphosphate, 1 mM NaF, 1 mM DTT

IκB-α kinase = IκB-α kinase inhibitory activity, in vitro kinase assay; type: biochemical

T1 sequence (P06493 whole entry, species assumed): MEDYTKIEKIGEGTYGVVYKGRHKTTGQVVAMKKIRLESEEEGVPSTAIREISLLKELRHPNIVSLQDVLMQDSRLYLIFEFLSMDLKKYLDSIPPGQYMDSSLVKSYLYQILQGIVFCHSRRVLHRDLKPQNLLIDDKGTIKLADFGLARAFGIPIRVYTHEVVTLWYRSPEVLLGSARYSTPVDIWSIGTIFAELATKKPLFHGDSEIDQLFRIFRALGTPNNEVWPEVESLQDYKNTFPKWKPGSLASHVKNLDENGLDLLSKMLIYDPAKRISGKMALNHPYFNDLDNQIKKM
T1 sequence (P14635 whole entry partner, species assumed): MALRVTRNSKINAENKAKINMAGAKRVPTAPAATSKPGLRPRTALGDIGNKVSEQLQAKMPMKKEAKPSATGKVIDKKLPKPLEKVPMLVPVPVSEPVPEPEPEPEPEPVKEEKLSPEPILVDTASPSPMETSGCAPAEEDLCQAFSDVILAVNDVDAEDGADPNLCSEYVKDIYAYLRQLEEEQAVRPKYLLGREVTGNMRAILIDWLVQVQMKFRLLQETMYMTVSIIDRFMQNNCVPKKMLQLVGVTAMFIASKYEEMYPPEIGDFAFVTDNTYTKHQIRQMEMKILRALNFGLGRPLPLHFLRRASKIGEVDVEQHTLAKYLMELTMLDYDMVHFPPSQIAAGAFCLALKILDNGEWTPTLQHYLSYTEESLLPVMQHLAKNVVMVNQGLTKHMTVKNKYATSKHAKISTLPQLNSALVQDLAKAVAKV

Compound `CC(C)[C@H](CO)Nc1nc(NC(CO)c2ccccc2)c2nnn(C(C)C)c2n1` (mixture of isomers) has an IC50 (p34^cdc2/cyclin B (CDC2)) of 50 µM and an IC50 (IκB-α kinase) of over 100 µM.

Work on `CC[C@H](CO)Nc1nc(NCc2cccc(OC)c2O)c2nnn(C(C)C)c2n1` yielded an IC50 (p34^cdc2/cyclin B (CDC2)) of 15 µM and an IC50 (IκB-α kinase) of 75 µM.

`Cn1nnc2c(Nc3ccc(Cl)cc3)nc(NCCO)nc21` gave an IC50 (p34^cdc2/cyclin B (CDC2)) of over 100 µM and an IC50 (IκB-α kinase) of over 100 µM.

`CC(=O)Oc1ccccc1CNc1nc(NCCO)nc2c1nnn2C` gave an IC50 (p34^cdc2/cyclin B (CDC2)) of 36 µM and an IC50 (IκB-α kinase) of 40 µM.

With `CC[C@H](CO)Nc1nc(NCc2ccc(OC)c(O)c2O)c2nnn(C(C)C)c2n1` the IC50 (p34^cdc2/cyclin B (CDC2)) was 14 µM and the IC50 (IκB-α kinase) was over 100 µM.

Work on `Cn1nnc2c(NCc3ccccc3)nc(NC3CCCCC3N)nc21` (stereo not shown) yielded an IC50 (p34^cdc2/cyclin B (CDC2)) of 25 µM and an IC50 (IκB-α kinase) of 70 µM.

`CC[C@H](CO)Nc1nc(NCc2ccccc2)c2nnn(C(C)C)c2n1` [2-[1(R)-Hydroxymethylpropylamino]-6-benzylamino-9-isopropyl-8-azapurine] was tested, and the IC50 (IκB-α kinase) was over 100 µM.

For `CC[C@H](CO)Nc1nc(NCc2ccccc2OC(C)=O)c2nnn(C(C)C)c2n1`, the IC50 (p34^cdc2/cyclin B (CDC2)) was 19 µM and the IC50 (IκB-α kinase) was over 100 µM.

`CC[C@H](CO)Nc1nc(N(C)CCc2ccc(O)c(O)c2)c2nnn(C(C)C)c2n1` gave an IC50 (p34^cdc2/cyclin B (CDC2)) of over 100 µM and an IC50 (IκB-α kinase) of over 100 µM.

`CC[C@H](CO)Nc1nc(NCc2c(N)cccc2Cl)c2nnn(C(C)C)c2n1` showed an IC50 (p34^cdc2/cyclin B (CDC2)) of 31 µM and an IC50 (IκB-α kinase) of over 100 µM.

Compound `CC(C)[C@H](CO)Nc1nc(NCc2cc(O)c(Cl)cc2O)c2nnn(C(C)C)c2n1` has an IC50 (p34^cdc2/cyclin B (CDC2)) of 8 µM and an IC50 (IκB-α kinase) of over 100 µM.

For `Cn1nnc2c(NCc3ccc(O)c(O)c3)nc(NCCO)nc21`, the IC50 (IκB-α kinase) was over 100 µM.

Compound `CC[C@H](CO)Nc1nc(NCc2cccc(OC(C)=O)c2)c2nnn(C(C)C)c2n1` has an IC50 (p34^cdc2/cyclin B (CDC2)) of 24 µM and an IC50 (IκB-α kinase) of over 100 µM.

Work on `Cn1nnc2c(NCc3c(O)cc(Cl)cc3O)nc(NCCO)nc21` yielded an IC50 (p34^cdc2/cyclin B (CDC2)) of 22 µM and an IC50 (IκB-α kinase) of over 100 µM.

Work on `CC(C)[C@H](CO)Nc1nc(NCc2ccccc2)c2nnn(C)c2n1` yielded an IC50 (p34^cdc2/cyclin B (CDC2)) of 50 µM and an IC50 (IκB-α kinase) of over 100 µM.

Compound `Cn1nnc2c(Nc3cccc(Cl)c3)nc(NCCO)nc21` has an IC50 (IκB-α kinase) of over 100 µM.

`CC[C@H](CO)Nc1nc(Nc2ccc(C(=O)O)c(Cl)c2)c2nnn(C(C)C)c2n1` showed an IC50 (p34^cdc2/cyclin B (CDC2)) of 35 µM and an IC50 (IκB-α kinase) of 70 µM.

`Cn1nnc2c(NCc3ccccc3)nc(NC3CCC(N)CC3)nc21` (stereo not shown) was tested, and the IC50 (p34^cdc2/cyclin B (CDC2)) was 16 µM and the IC50 (IκB-α kinase) was 40 µM.

With `Cn1nnc2c(Nc3ccc(O)c(C(=O)O)c3)nc(NCCO)nc21` the IC50 (p34^cdc2/cyclin B (CDC2)) was 58 µM and the IC50 (IκB-α kinase) was over 100 µM.

`Cc1cccc(CNc2nc(N[C@@H](CO)C(C)C)nc3c2nnn3C(C)C)c1O` was tested, and the IC50 (p34^cdc2/cyclin B (CDC2)) was 18 µM and the IC50 (IκB-α kinase) was 55 µM.

`CC[C@H](CO)Nc1nc(NCc2ccccc2O)c2nnn(C(C)C)c2n1` was tested, and the IC50 (p34^cdc2/cyclin B (CDC2)) was 14 µM and the IC50 (IκB-α kinase) was 80 µM.

For `CC[C@H](CO)Nc1nc(NCc2c(O)cc(Cl)cc2O)c2nnn(C(C)C)c2n1`, the IC50 (p34^cdc2/cyclin B (CDC2)) was 12 µM.

With `CC(C)[C@H](CO)Nc1nc(NCc2ccc(Cl)c(N)c2N)c2nnn(C(C)C)c2n1` the IC50 (p34^cdc2/cyclin B (CDC2)) was 34 µM and the IC50 (IκB-α kinase) was over 100 µM.

`CC[C@H](CO)Nc1nc(NCc2ccccc2)c2nnn(C)c2n1` was tested, and the IC50 (IκB-α kinase) was over 100 µM.

`CC[C@H](CO)Nc1nc(Nc2ccc(N)c(Cl)c2)c2nnn(C(C)C)c2n1` was tested, and the IC50 (p34^cdc2/cyclin B (CDC2)) was 50 µM and the IC50 (IκB-α kinase) was over 100 µM.

Compound `CC[C@H](CO)Nc1nc(NCc2cccc(C)c2O)c2nnn(C(C)C)c2n1` has an IC50 (p34^cdc2/cyclin B (CDC2)) of 34 µM and an IC50 (IκB-α kinase) of 80 µM.

With `CC[C@H](CO)Nc1nc(NCc2cc(O)c(OC)cc2O)c2[nH]nc(C(C)C)c2n1` the IC50 (p34^cdc2/cyclin B (CDC2)) was 12 µM and the IC50 (IκB-α kinase) was over 100 µM.

For `Cn1nnc2c(Nc3ccc(Br)cc3)nc(NCCO)nc21`, the IC50 (p34^cdc2/cyclin B (CDC2)) was over 100 µM and the IC50 (IκB-α kinase) was over 100 µM.

For `COc1cc(O)c(CNc2nc(NCCO)nc3c2nnn3C)c(O)c1`, the IC50 (p34^cdc2/cyclin B (CDC2)) was 18.2 µM.

With `CC(C)[C@H](CO)Nc1nc(NCc2cccc(Cl)c2O)c2nnn(C(C)C)c2n1` the IC50 (p34^cdc2/cyclin B (CDC2)) was 32 µM and the IC50 (IκB-α kinase) was 60 µM.

`CC(C)[C@H](CO)Nc1nc(NCc2ccc(Cl)c(O)c2O)c2nnn(C(C)C)c2n1` gave an IC50 (p34^cdc2/cyclin B (CDC2)) of 11 µM and an IC50 (IκB-α kinase) of over 100 µM.

Compound `CC(C)[C@H](CO)Nc1nc(Nc2ccc(C(=O)O)c(Cl)c2)c2nnn(C(C)C)c2n1` has an IC50 (p34^cdc2/cyclin B (CDC2)) of 25 µM.

`CC(C)n1nnc2c(NCc3ccccc3)nc(NC3CCC(N)CC3)nc21` (stereo not shown) showed an IC50 (p34^cdc2/cyclin B (CDC2)) of 3.7 µM and an IC50 (IκB-α kinase) of 48 µM.

`COc1cc(O)c(CNc2nc(N[C@@H](CO)C(C)C)nc3c2nnn3C(C)C)c(O)c1` was tested, and the IC50 (p34^cdc2/cyclin B (CDC2)) was 10 µM and the IC50 (IκB-α kinase) was over 100 µM.

`CN(Cc1ccc(O)c(O)c1)c1nc(NCCO)nc2c1nnn2C` gave an IC50 (IκB-α kinase) of over 100 µM.

`Cn1nnc2c(NCc3ccc(Cl)c(N)c3)nc(NCCO)nc21` showed an IC50 (p34^cdc2/cyclin B (CDC2)) of 50 µM.

In the case of `CC(=O)c1ccccc1CNc1nc(NCCO)nc2c1nnn2C`, the IC50 (p34^cdc2/cyclin B (CDC2)) is reported as 70 µM and the IC50 (IκB-α kinase) is reported as over 100 µM.

Work on `Cn1nnc2c(NCc3ccccc3)nc(NCCCN)nc21` yielded an IC50 (p34^cdc2/cyclin B (CDC2)) of 90 µM and an IC50 (IκB-α kinase) of over 100 µM.
